Values quoted from earlier work as cited in patent publication US8945626B2, “Preparation of pharmaceutical compositions” (priority 2006, dated 2015).

- solubility in cold water: very slightly soluble
SMILES: CC(=O)Nc1ccc(O)cc1 [Paracetamol, 4-Acetamidophenol]
